Assays:
[1] = test system: cells synthesizing GABA among the cells expressing Pax6-GFP; experiment: Immunofluorescence staining: ratio of cells synthesizing GABA among cells expressing Pax6-GFP; type: cell-based; conditions: Pax6-GFP transgenic mouse neuronal precursor cells; aucubin 0.01-10 μM vs untreated; FIG. 4C
Source text: (§1) In order to culture neurons, cells were obtained from the brain of an E16 rat embryo according to a method known in the art (Lim et al., 2007; Jo et al., 2007). Specifically, hippocampal eminence was isolated from the forebrain of the E16 rat embryo, and cells were mechanically isolated from the thus-obtained hippocampal eminence tissue by using Ca^2+/Mg^2+-free HBSS(Hanks' Balanced Salt Solution, Invitrogen). PAX6-GFP expressing neuronal precursor cells (NPCs) were isolated from the sub ventricular zone of a PAX6-GFP transgenic mouse.
(§2) The culture of cells was supplemented with 10 ng/mL or 20 ng/mL of bFGF (basic fibroblast growth factor, Invitrogen), and culturing was performed for 3 days in a serum-free N2 medium. After the confluency of cells reaches 70% to 80% by culturing for 3 to 4 days, the cells were subjected to passaging, and then divided and seeded according to an experimental use. Subsequently, the cells were cultured for 7 days in a N2 medium where FGF is removed, allowing neurons to be sufficiently differentiated. The cells were treated with aucubin (Sigma) at varying concentrations (0 μM, 0.01 μM, 0.1 μM, 1 μM, or 10 μM) in a bFGF-free N2 medium. […]
(§3) For GFP-fluorescence staining, an anti-GFP (rabbit anti-GFP antibody, 1:500, Merck, Germany) primary antibody was used. […]

vGluT1 = experiment: Immunoblot analysis: expression of vGluT1 (glutamatergic neuron-specific marker); type: cell-based, rat; conditions: relative to β-actin, aucubin 0.01-10 μM vs untreated, remarkably lower than GAD65/67, FIG. 3A, D
Source text: as §1, with “mouse. […]” for “mouse.”
(§4) Specifically, cells (30,000 cells/cm^2), which were cultured in a 60 mm petri dish coated with 15 μg/mL of poly-L-ornithine (Sigma-Aldrich, USA) and 1 μg/mL of fibronectin (Sigma-Aldrich, USA), were used. […] The protein quantification was performed using a Bradford protein assay kit (Bio-Rad, Hercules, Calif., USA).
(§5) Subsequently, a mixture of 20 μg of the proteins and a loading buffer (Biosesang Co., Seoul, Korea) was boiled at 100° C. for 10 minutes to denature the proteins. […] Thereafter, signals were detected after culturing the proteins with a secondary antibody.
(§6) In order to verify the effect of aucubin on enhancing the survival rates of GABAergic and glutamatergic neurons, the cells were treated with aucubin, followed by quantifying the expression levels of each cell type marker by an immunoblot method. […]

[2] = test system: cholinergic neurons expressing a ChAT-GFP marker; experiment: Immunofluorescence staining: survival rate of cholinergic neurons expressing a ChAT-GFP marker; type: cell-based; conditions: ChAT-GFP transgenic mouse cells; aucubin 0.01-10 μM vs untreated; relative to total DAPI-stained cells; FIG. 2b
Method: as §2, §3
(§7) Thereafter, the number of the stained cells was counted, and compared with the number of the cells expressing a GABAergic neuron-specific marker (GAD65/67), and the survival rates thereof were shown in a graph.
(§8) Specifically, the cells cultured by the method according to Experimental Example 1 were treated with aucubin at varying concentrations of 0 μM, 0.01 μM, 0.1 μM, 1 μM, and 10 μM, respectively. The number of GABAergic neurons expressing a GAD65/67 marker and the number of cholinergic neuron expressing a ChAT-GFP marker were shown in graphs as survival rates relative to the total number of cells which were fluorescence stained with DAPI.

GAD65/67 = experiment: Immunoblot analysis: expression of GAD65/67 (GABAergic neuron-specific marker); type: cell-based, rat; conditions: relative to β-actin, aucubin 0.01-10 μM vs untreated, FIG. 3A, C
Source text: as §1, with “mouse. […]” for “mouse.”
as §4, §5, §6

[3] = test system: glutamatergic neurons expressing a vGluT1 marker; experiment: Immunofluorescence staining: survival rate of glutamatergic neurons expressing a vGluT1 marker; type: cell-based, rat; conditions: aucubin 0.01-10 μM vs cells not treated with aucubin; increase remarkably lower than for GABAergic neurons; FIG. 1B
Source text: as §1, §2
(§9) Thereafter, the number of the stained cells was counted and the survival rates thereof were shown in a graph. […]

[4] = test system: neuronal precursor cells expressing Pax6-GFP; experiment: Immunofluorescence staining: number of neuronal precursor cells expressing Pax6-GFP; type: cell-based; conditions: Pax6-GFP transgenic mouse neuronal precursor cells; aucubin 0.01-10 μM vs untreated; FIG. 4A, B
Source text: as §1, §2, §3

[5] = test system: GABAergic neurons expressing a GAD65/67 marker; experiment: Immunofluorescence staining: survival rate of GABAergic neurons expressing a GAD65/67 marker; type: cell-based, rat; conditions: aucubin 0.01-10 μM vs cells not treated with aucubin; survival rate relative to total number of cells; FIG. 1A
Source text: as §1, §2, §9

[6] = test system: GABAergic neurons expressing a GAD65/67 marker; experiment: Immunofluorescence staining: survival rate of GABAergic neurons in ChAT-GFP transgenic mouse culture; type: cell-based; conditions: ChAT-GFP transgenic mouse cells; aucubin 0.01-10 μM vs untreated; relative to total DAPI-stained cells; FIG. 2b
Method: as §2, §3, §7, §8

NeuN = experiment: Immunoblot analysis: expression of NeuN (mature neuron-specific marker); type: cell-based, rat; conditions: relative to β-actin, aucubin 0.01-10 μM vs untreated, FIG. 3A, B
Source text: as §1, with “mouse. […]” for “mouse.”
as §4, §5, §6

OCC1=C[C@@H](O)[C@@H]2C=CO[C@@H](O[C@@H]3O[C@H](CO)[C@@H](O)[C@H](O)[C@H]3O)[C@H]12 [aucubin]
increase in ratio of cells synthesizing GABA among the cells expressing Pax6-GFP [1]: ≥ 1.5 fold | expression of vGluT1 (glutamatergic neuron-specific marker) (vGluT1): significantly increased | survival rate of cholinergic cells expressing a ChAT-GFP marker [2]: the increase rate thereof was not significant | increase in expression of GAD65/67 (GABAergic neuron-specific marker) (GAD65/67): up to 5 fold | survival rate of excitatory neurons expressing vGluT1 [3]: significantly increased | increase in number of cells which express Pax6-GFP [4]: about 2 fold | increase in survival rate of GABAergic neurons expressing a GAD67/65 marker [5]: up to 2 fold | increase in survival rate of GABAergic neurons expressing a GAD65/67 marker [6]: ~2 fold | expression of NeuN (mature neuron-specific marker) (NeuN): remarkably increased

From patent publication US11166970B2, “Composition for preventing or treating neurological disorder comprising aucubin” (University-Industry Cooperation Group of Kyung Hee …, priority 2017, dated 2021)
